Tests used:
[1] = tested on: bacterial biofilms (MRSA); assay: biofilm assays (sustained inhibition and/or disruption), bacterial; format: cell-based, Staphylococcus aureus; details: Tables 4 and 5
Procedure: (§1) Other amino acids in the blood of animals could combat bacterial and fungal biofilm and therefore may be useful in treating these bacterial and fungal infections that would lie on the external surfaces of infected animals such as humans and could also be used to combat these pathogens on instruments and surfaces that need to be treated. Two types of biofilm assays were performed: a sustained inhibition assay and a disruption assay. The sustained inhibition assay assessed the compound's ability to prevent biofilm development throughout all stages of biofilm formation, while the disruption assay assessed the compound's ability to break up an existing mature biofilm.
(§2) For fungal biofilm assays, all solutions were prepared in RPMI 1640 medium. All bacterial biofilm solutions were prepared in Tryptic Soy Broth (TSB), supplemented with 1% glucose (henceforth referred to as TSB-G). All subsequent procedures were performed in a manner that maintained sterility. A solution of each amino acid to be tested was prepared in weight to volume concentrations ranging from 0.1-5.0%. Amino acids were also tested in combinations. Compound solutions were homogenized with gentle agitation in the dark (4° C., 24 hours) before use.
(§3) Bacterial strains were streaked on Blood Agar plates (5% sheep blood in Tryptic Soy Agar) and incubated at 37° C. for 24 hours. A single colony from each strain to be tested was inoculated in a TSB broth and grown for 12 hours, at 37° C. shaking at 225 rpm. For the bacterial biofilm inhibition assays, 1 μL of saturated overnight cell culture was added to either 80 μL of TSB-G, or TSB-G supplemented with the amino acid compound solution to be tested, in a 384-well plate. The cells were allowed to adhere to the plate for 60 minutes at 37° C. without shaking. The media was carefully aspirated and 80 μL of TSB-G, or TSB-G supplemented with the amino acid compound solution was added to the plate. The plate was further incubated for 24 hours at 37° C. without shaking. Media was carefully aspirated and the biofilm was measured by optical density at 600 nm. Eight or twelve replicates were performed for each tested condition and the reported values are normalized to the control (TSB-G media only). For the bacterial biofilm disruption assays, 80 μL of TSB-G was added to the plate, along with 1 μL of overnight cell culture. The cells were allowed to adhere to the plate for 60 minutes at 37° C. with no shaking. The media was carefully aspirated and 80 μL of TSB-G was added to the plate. The plate was further incubated for 24 hours at 37° C. with no shaking. Media was carefully aspirated from the mature biofilm and 80 μL of TSB-G, or TSB-G supplemented with the amino acid to be tested, was gently added to the plate. The plate was further incubated for 24 hours at 37° C. without shaking. Media was aspirated and the biofilm was measured by optical density at 600 nm. Twelve replicates were performed for each tested condition and the reported values are normalized to the control (TSB-G media only).

[2] = tested on: S. aureus (MRSA) biofilms; assay: in vitro sustained inhibition biofilm assay, bacterial; format: cell-based, Staphylococcus aureus
Procedure: In vitro biofilm formation was tested using two assays, sustained inhibition and disruption. Both assays assess biofilm formed on polystyrene plates. The first, tests the effects of amino acid solution on a developing biofilm, while the latter tests the effects of the solution on a pre-formed mature biofilm, both compared to media without supplemented amino acids.
as §1, §2, §3
For inhibition assay, 1 μl of overnight cell culture was added to either 80 μl of TSB-G, or TSB-G supplemented with the amino acid to be tested, in a 384-well plate. The cells were allowed to adhere to the plate for 60 minutes at 37° C. with no shaking. The media was carefully aspirated and 80 μl of TSB-G, or TSB-G supplemented with amino acid was added to the plate. The plate was further incubated for 24 hours at 37° C. with no shaking. Media was carefully aspirated and the biofilm was measured by optical density at 600 nm. […]

[3] = tested on: C. albicans biofilms; assay: in vitro sustained inhibition biofilm assay, fungal; format: cell-based, Candida albicans; details: 1% amino acid, p<0.001
Procedure: Two types of biofilm assays were performed: a sustained inhibition assay and a disruption assay.
as §2
Fungal strains were streaked on Yeast Peptone Dextrose (YPD) agar plates and incubated at 30° C. for 48 hours. A single colony from each strain to be tested was inoculated into YPD broth and grown for 12 hours, at 30° C., shaking at 225 rpm. For the fungal biofilm inhibition assay, 1 μl of saturated overnight cell culture was added to either 80 μL of RPMI-1640 or RPMI-1640 supplemented with the amino acid compound solution to be tested, in a 384-well plate. […] Media was carefully aspirated and the biofilm was measured by optical density at 600 nm. Twelve replicates were performed for each tested condition and the reported values are normalized to the control (RPMI-1640 media only). For the fungal biofilm disruption assays, 80 μL of RPMI-1640 was added to the plate, along with 1 μL of overnight cell culture. […] Loosely bound cells were washed once with PBS and 80 μL of RPMI-1640 was added to the plate. […] Media was carefully aspirated from the mature biofilm and 80 μL of RPMI-1640, or RPMI-1640 supplemented with the amino acid compound solution to be tested, was gently added to the plate. […] Media was carefully aspirated and the biofilm was measured by optical density at 600 nm. Twelve replicates were performed for each tested condition and the reported values are normalized to the control (RPMI-1640 media only).
The plate was further incubated for 24 hours at 37° C. with shaking (350 rpm). Media was carefully aspirated and the biofilm was measured by optical density at 600 nm.

[4] = sustained inhibition, S. aureus, 1% amino acid, p<0.001

SMILES	effect on MRSA biofilms in inhibition and disruption assays [1]	Reduce B Biofilm [2, 4]	Reduce F Biofilm [3]	Reduce B Biofilm ([2]; MRSA)
N[C@@H](CS)C(=O)O [Cysteine, L-cysteine]	both inhibited and disrupted	●● (two dots [i.e. ●●] signifies major effect (greater than about 30% change))	●● (two dots [i.e. ●●] signifies major effect (greater than about 30% change))	–
N[C@@H](CCC(=O)O)C(=O)O [Glutamic Acid, L-glutamic acid]	both inhibited and disrupted	–	●● (two dots [i.e. ●●] signifies major effect (greater than about 30% change))	●● (two dots [i.e. ●●] signifies major effect (greater than about 30% change))
N[C@@H](CC(=O)O)C(=O)O [Aspartic Acid, L-aspartic acid]	both inhibited and disrupted	●● (two dots [i.e. ●●] signifies major effect (greater than about 30% change))	●● (two dots [i.e. ●●] signifies major effect (greater than about 30% change))	–

— US12226386B2, “Compositions and methods for treating biofilms” (The Regents of the University of California, priority 2018, dated 2025)
